Patent US8586552B2, “4,6-substituted 2,5-dideoxystreptamine aminoglycoside antibiotics” (SelectX Pharmaceuticals, Inc., priority 2012, dated 2013)
Converted amounts (≈) assume the structure as drawn.

What was measured:
Type in all cases: cell-based
[1] = test system: Pseudomonas aeruginosa (Pae, PAWT, ATCC #27853); test: MIC against Pseudomonas aeruginosa reference strain PAWT; details: Pseudomonas aeruginosa wild type PAWT
Description: (§1) For evaluation of efficacy, we assembled panels of representative gram-negative pathogens, including Pseudomonas aeruginosa (Pae, PAWT, ATCC #27853), Klebsiella pneumoniae (Kpn, KPWT, ATCC #700603), Acinetobacter baumannii (Aba, ABWT, ATCC #BAA-747) and Escherichia coli (Eco, ECWT, ATCC #25922). These reference strains are useful indicator organisms to characterize compound activity against bacteria from a pathogenic genus in the absence of multiple resistance mechanisms. Two strains (PAWT and ECWT) are reference strains cited within the Clinical and Laboratory Standards Institute (CLSI) Standards for susceptibility testing by Minimum Inhibitory Concentration (MIC) (SXPS2) and are well suited for quality control. ABWT and ECWT are widely susceptible to aminoglycoside antibiotics, whereas PAWT and KPWT harbor a single aminoglycoside-modifying enzyme (AGME) that targets 4,6-substituted-2-deoxystreptamine AGs. […]

[2] = test system: Klebsiella pneumoniae (Kpn, KPWT, ATCC #700603); test: MIC against Klebsiella pneumoniae reference strain KPWT; details: Klebsiella pneumonia KPWT, Table 5 (unit not given); in µg/mL
Description: as §1, with “These reference strains are useful indicator organisms to characterize compound activity against bacteria from a pathogenic genus in the absence of multiple resistance mechanisms.” left out

[3] = test system: Pseudomonas aeruginosa PR1 (clinical isolate with intermediate aminoglycoside resistance); test: MIC against Pseudomonas aeruginosa clinical isolate PR1; details: Pseudomonas aeruginosa resistant strain PR1
Description: (§2) Pseudomonas aeruginosa is a prominent nosocomial pathogen. In addition to intrinsic antibiotic resistance to several antibiotics, Pseudomonas has acquired multiple additional mechanisms of resistance. As a result, therapeutic options for the treatment of infections caused by Pseudomonas aeruginosa are limited. We acquired clinical isolates of Pseudomonas aeruginosa (Micromyx LLC, Kalamazoo, Mich.), and used this panel to test compounds for Pseudomonicidal activity. […] For each strain and antibiotic, the mechanism(s) of resistance was inferred from the resistance profile. The presence of specific AGMEs was confirmed by colony PCR.

[4] = test system: Pseudomonas aeruginosa PR2 (clinical isolate with intermediate aminoglycoside resistance); test: MIC against Pseudomonas aeruginosa clinical isolate PR2; details: Pseudomonas aeruginosa resistant strain PR2
Description: as §2

[5] = test system: Pseudomonas aeruginosa PR3 (high-level, efflux-mediated, pan-aminoglycoside resistance); test: MIC against Pseudomonas aeruginosa clinical isolate PR3; details: Pseudomonas aeruginosa resistant strain PR3
Description: as §2

[6] = test system: Klebsiella pneumoniae KR1 (clinical isolate with intermediate aminoglycoside resistance); test: MIC against Klebsiella pneumoniae clinical isolate KR1; details: Klebsiella pneumonia KR1; in µg/mL
Description: (§3) Klebsiella pneumoniae (Kpn) and Escherichia coli (Eco) are gram-negative (like Pae), enteric pathogens with increasing clinical relevance. Many clinical isolates of Kpn and Eco harbor extended-spectrum beta-lactamases and are no longer sensitive to most beta-lactam antibiotics. We acquired clinical isolates of Klebsiella pneumoniae and Escherichia coli (Micromyx LLC, Kalamazoo, Mich.) and used this panel to test compounds for anti-enteric activity.

[7] = test system: Klebsiella pneumoniae KR2 (clinical isolate with intermediate aminoglycoside resistance); test: MIC against Klebsiella pneumoniae clinical isolate KR2; details: Klebsiella pneumonia KR2
Description: as §3

[8] = test system: Klebsiella pneumoniae KR3 (clinical isolate possessing high-level aminoglycoside resistance); test: MIC against Klebsiella pneumoniae clinical isolate KR3; details: Klebsiella pneumonia KR3; in µg/mL
Description: as §3

[9] = test system: Acinetobacter baumannii (Aba, ABWT, ATCC #BAA-747); test: MIC against Acinetobacter baumannii reference strain ABWT
Description: as §1

[10] = test system: more than fifty resistant contemporary clinical isolates of Pseudomonas aeruginosa; test: MIC90 against panel of resistant clinical isolates of Pseudomonas aeruginosa
Description: To assess this, a panel of more than fifty resistant contemporary clinical isolates of Pseudomonas aeruginosa were obtained from multiple sources including JMI Laboratories (North Liberty, Iowa), Pfizer (Groton, Conn.), Micromyx (Kalamazoo, Mich.), Dr. J. Chow (Wayne State University). Strains were characterized for resistance to a wide variety of classes of antibiotics including aminoglycosides, β-lactams and fluoroquinolones. […] This reflects the difficulty in treating clinical Pseudomonas aeruginosa infections. […] Using this stringent panel, we tested a subset of compounds of the invention (Table 4).

[11] = test system: fifty resistant contemporary clinical isolates of Klebsiella pneumoniae; test: MIC90 against panel of resistant clinical isolates of Klebsiella pneumoniae; details: stringent panel of resistant clinical isolates, Table 5
Description: Using this stringent Klebsiella pneumoniae panel, we tested a subset of compounds of the invention.

panel of E. coli strains = test: MIC90 against a panel of E. coli strains; details: in µg/mL
[12] = test system: Acinetobacter baumannii AB1; test: MIC against Acinetobacter baumannii clinical isolate AB1
Description: (§4) Acinetobacter baumannii is another clinically important and very challenging gram negative pathogen. Members of the Acinetobacter genus, including baumannii, have a remarkable ability to upregulate and acquire resistance determinants. Coupled with its ability to survive for prolonged periods in a hospital environment, A. baumannii is an emerging threat for healthcare institutions globally. We acquired clinical isolates of Acinetobacter baumannii and used this panel to test compounds for anti-Acinetobacter activity. We first tested reference AGs against our panel of Aba strains.

[13] = test system: Acinetobacter baumannii AB2; test: MIC against Acinetobacter baumannii clinical isolate AB2
Description: as §4

[14] = test system: Acinetobacter baumannii AB3; test: MIC against Acinetobacter baumannii clinical isolate AB3
Description: as §4

[15] = test system: fifty resistant contemporary clinical isolates of Acinetobacter baumannii; test: MIC90 against panel of resistant clinical isolates of Acinetobacter baumannii
Description: As in the case of Pseudomonas aeruginosa and Klebsiella pneumoniae, we considered whether the SAR observed against select Acinetobacter baumannii strains 1, 2 or 3 was indicative of general potency. […] Using this stringent Acinetobacter baumannii panel, we tested a subset of compounds of the invention.

NCC[C@H](O)C(=O)N[C@@H]1C[C@H](N)[C@@H](O[C@H]2O[C@H](CN)[C@@H](O)[C@H](O)[C@H]2O)[C@@H](F)[C@H]1O[C@H]1O[C@H](CNC2CC2)[C@@H](O)[C@H](N)[C@H]1O [SXP1212-56″-16]
MIC PAWT [1]: 1 µg/mL (≈ 1.6 µM) | MIC KPWT [2]: <0.25 | MIC PR1 [3]: 2 to 8 µg/mL | MIC PR2 [4]: <0.25 to 4 µg/mL | MIC PR3 [5]: 32 µg/mL (≈ 51.1 µM) | MIC KR1 [6]: 0.5-1 | MIC KR2 [7]: 1 | MIC KR3 [8]: 16

NCCC(O)C(=O)NC1CC(N)C(OC2OC(CN)C(O)CC2N)C(F)C1OC1OC(CNCC2CNC2)C(O)C(N)C1O (stereo not drawn) [SXP 2525]
MIC PAWT [1]: 0.25 to 0.5 µg/mL | MIC KPWT [2]: 0.5 | MIC ABWT [9]: 0.5 µg/mL (≈ 0.783 µM) | MIC PR1 [3]: 8 µg/mL (≈ 12.5 µM) | MIC PR2 [4]: 1 µg/mL (≈ 1.57 µM) | MIC PR3 [5]: 8 µg/mL (≈ 12.5 µM) | MIC90 Pseudomonas aeruginosa [10]: 4 µg/mL (≈ 6.26 µM) | MIC KR1 [6]: 1 | MIC KR2 [7]: 0.5 | MIC KR3 [8]: 1 | MIC90 Klebsiella pneumonia [11]: 1 µg/mL (≈ 1.57 µM) | MIC90 E. coli (panel of E. coli strains): 2 | MIC AB1 [12]: 2 to 4 µg/mL | MIC AB2 [13]: 1 µg/mL (≈ 1.57 µM) | MIC AB3 [14]: 8 µg/mL (≈ 12.5 µM) | MIC90 Acinetobacter baumannii [15]: 2 µg/mL (≈ 3.13 µM)
